Results taken from patent EP4417607A1, “HETEROCYCLIC COMPOUND AS SOS1 INHIBITOR AND USES THEREOF” (Nanjing Zaiming Pharmaceutical Co., Ltd., priority 2021, dated 2023).

Columns and labels:
H358 cells = assay: H358 cell proliferation inhibition (CellTiter-Glo luminescent cell viability assay); format: cell-based; conditions: Homo sapiens, NCI-H358, 168 h, 7 days
In short: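 H358 cells seeded at 3000 cells/well in RPMI1640/10% FBS, treated with compound for 7 days at 37 °C/5% CO2. Viability read by CellTiter-Glo 3D luminescence, normalised to cell-free (100%) and compound-free (0%) controls; IC50 fitted from 8 concentrations by four-parameter curve.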

[1] = Plasma protein binding rate by equilibrium dialysis; format: in vitro ADME; conditions: CD-1 mouse plasma, 1 µM compound, 6 h dialysis at 37 °C
Procedure: • 1. CD-1 mouse plasma (BioIVT) • 2. 96-well equilibrium dialysis plate (HTDialysis LLC, Gales Ferry, CT, HTD96B) and equilibrium dialysis membrane (MWCO 12-14K, #1101) • 3. Positive control compound warfarin • 4. ABI QTrap 5500 liquid chromatography-mass spectrometry system
• 1. Preparation of a buffer with a concentration of 100 mM sodium phosphate and 150 mM NaCl: an alkaline solution with a concentration of 14.2 g/L Na2HPO4 and 8.77 g/L NaCl was prepared with ultrapure water, and an acidic solution with a concentration of 12.0 g/L NaH2PO4 and 8.77 g/L NaCl was prepared with ultrapure water. The alkaline solution was titrated with the acidic solution until the pH was 7.4 to prepare a buffer with a concentration of 100 mM sodium phosphate and 150 mM NaCl. • 2. Preparation of a dialysis membrane: the dialysis membrane was soaked in ultrapure water for 60 min to separate the membrane into two pieces, then soaked with 20% ethanol for 20 min, and finally soaked with dialysis buffer for 20 min. • 3. Preparation of plasma: the frozen plasma was quickly thawed at room temperature and then centrifuged at 3,220 g at 4 °C for 10 min to remove clots, and the supernatant was collected to a new centrifuge tube. The pH of the plasma was measured and recorded. The plasma with pH 7-8 was used. • 4. Preparation of a plasma sample containing the compound: A 10 mM stock solution of the compound or the positive control compound was diluted with DMSO to give a 200 µM working solution. 3 µL of 200 µM of the compound working solution was added to 597 µL of mouse plasma to give a plasma sample with a final concentration of 1 µM. • 5. Equilibrium dialysis procedures: a dialysis device was assembled according to the instructions. […]
The peak areas of the compound on the buffer side and the plasma side were measured. The plasma protein binding rate of the compound was calculated by the following formula: [formula] %Binding rate = 1−%Free rate [formula]
All data were calculated by Microsoft Excel software. […]

Compound	IC50 (H358 cells) [µM]	%Binding rate [1] [%]
Cc1nc(N[C@H](C)c2cccc(C(F)F)c2F)c2cn(C3(CF)CC3)c(=O)c(N3CCOC[C@@H]3C)c2n1 [Example 40, 4-(((R)-1-(3-(difluoromethyl)-2-fluorophenyl)ethyl)amino)-6-(1-(fluoromethyl)cyclopropyl)-2-methyl-8-((S)-3-methylmorpholine)pyrido[4,3-d]pyrimidine-7(6H)-one]	0.0142	92.9
[2H][C@](C)(Nc1nc(C)nc2c(N3CCOCC3)c(=O)n(C3(CF)CC3)cc12)c1cccc(C(F)F)c1F [Example 55, (R)-4-((1-(3-(difluoromethyl)-2-fluorophenyl)ethyl-1-d)amino)-6-(1-(fluoromethyl)cyclopropyl)-2-methyl-8-morpholinylpyrido[4,3-d]pyrimidine-7(6H)-one]	0.0243	95.7

Continued, in another order:

IC50 (H358 cells) [µM]	Compound	%Binding rate [1] [%]
0.0982	COc1c(=O)n(N2CCOCC2)cc2c(N[C@H](C)c3cccc(C(F)F)c3F)nc(C)nc12 [Example 20, (R)-4-((1-(3-(difluoromethyl)-2-fluorophenyl)ethyl)amino)-8-methoxy-2-methyl-6-morpholinepyrido[4,3-d]pyrimidine-7(6H)-one]	
0.0123	Cc1nc(N[C@H](C)c2cccc(C(F)F)c2F)c2cn(C3(CF)CC3)c(=O)c(N3CCOCC3)c2n1 [Example 34, (R)-4-((1-(3-(difluoromethyl)-2-fluorophenyl)ethyl)amino)-6-(1-(fluoromethyl)cyclopropyl)-2-methyl-8-morpholinylpyrido[4,3-d]pyrimidine-7(6H)-one]	
0.119	[2H]C([2H])([2H])Oc1c(=O)n(C2(CF)CC2)cc2c(N[C@H](C)c3cccc(C(F)F)c3F)nc(C)nc12 [Example 23, (R)-4-((1-(3-(difluoromethyl)-2-fluorophenyl)ethyl)amino)-6-(1-(fluoromethyl)cyclopropyl)-8-(methoxy-d3)-2-methylpyrido[4,3-d]pyrimidine-7(6H)-one]	91.3
